Source: paper PMC6100582 (Molecules : A Journal of Synthetic Chemistry and Natural …, 2018)
≈ marks a conversion by molar mass, not a printed value.

Tests used:
[1] = test system: Mycobacterium tuberculosis H37Ra; experiment: Antimycobacterial susceptibility assay (MIC determination); assay type: cell-based; settings: 168 h, 7 days, 37 °C, alamarBlue
Experimental: At log phase growth, a culture sample (10 mL) was centrifuged at 15,000 rpm/20 min using a bench-top centrifuge (MPW-65R, MPW Med Instruments, Poland). Following removal of the supernatant, the pellet was washed in fresh Middlebrook 7H9GC broth and re-suspended in fresh, ODAC-supplemented MB (10 mL). The turbidity was adjusted to match McFarland standard No. 1 (3 × 10^8 CFU) with MB broth. A further 1:20 dilution of the culture was then performed in MB broth. The antimicrobial susceptibility of M. tuberculosis was investigated in a 96-well plate format. In these experiments, sterile deionised water (300 µl) was added to all outer-perimeter wells of the plates to minimize evaporation of the medium in the test wells during incubation. Each evaluated compound (100 µL) was incubated with M. tuberculosis (100 µl). Dilutions of each compound were prepared in duplicate. For all synthesized compounds, final concentrations ranged from 1000 μg/mL to 8 μg/mL. All compounds were dissolved in DMSO, and subsequent dilutions were made in supplemented MB. […] Following incubation, 10% of alamarBlue (Difco, Lawrence, KS, USA) was mixed into each well, and readings at 570 nm and 600 nm were taken, initially for background subtraction and subsequently after 24 h reincubation. […] For non-interfering compounds, a blue colour in the well was interpreted as the absence of growth, and a pink colour was scored as growth.

[2] = test system: panel of nine different human cancer cell lines; experiment: Cytostatic activity, panel of nine human cancer cell lines; assay type: cell-based; settings: all nine tested cell lines, read-out: IC50 (range over all tested cell lines)
Experimental: To gain insight into cytotoxicity of newly synthesized compounds 4a–f and 5a–f, their cytostatic activity was evaluated in vitro against a panel of nine different human cancer cell lines, representing various solid tumor types including pancreatic adenocarcinoma (Capan-1), chronic myeloid leukemia (Hap1), colorectal carcinoma (HCT-116), lung carcinoma (NCI-H460), acute lymphoblastic leukemia (DND-41), acute myeloid leukemia (HL-60), chronic myeloid leukemia (K-562), multiple myeloma (MM.1S) and non-Hodgkin lymphoma (Z-138).
Cytostatic activity was evaluated in vitro on nine different types of human tumor cell lines: Capan-1, Hap1, HCT-116, and NCI-H460, as well as hematological tumors such as DND-41, HL-60, K-562, MM.1S and Z-138 as described previously. All human tumor cell lines were acquired from the American Type Culture Collection (ATCC, Manassas, VA, USA), except for the DND-41 cell line which was purchased from the Deutsche Sammlung von Mikroorganismen und Zellkulturen (DSMZ Leibniz-Institut, Braunschweig, Germany) and the Hap1 cell line which was purchased from Horizon Discovery (Waterbeach, UK). […] The plates were incubated and monitored at 37 °C for 72 h in an IncuCyte (Essen BioScience Inc., Ann Arbor, MI, USA) for real-time imaging. […]

[3] = test system: broad variety of viral infections; experiment: Antiviral evaluation, broad variety of viruses; assay type: cell-based; settings: Vero cells; for EC50: reovirus-1, sindbis virus and Punta Toro virus, read-out: EC50 (range over viruses)
Vero cell cultures = settings: Vero cells, microscopically detectable alteration of cell morphology; unit not printed in head (EC50 columns µM)
[4] = test system: panel of bacteria, Mycobacterium strains and fungi; experiment: Antimicrobial screening, panel of bacteria, Mycobacterium strains and fungi; assay type: cell-based; settings: S. aureus, S. pneumoniae, A. baumannii and C. albicans ATCC 90028

Structure (SMILES)	MIC [1] [µg/mL]	IC50 [2] [µM]	selectivity index (SI), MCC and EC50 ratio [3]	EC50 [3] [µM]	Cytotoxicity MCC (minimum cytotoxic concentration) (Vero cell cultures)	MIC values (range over strains) [4] [µg/mL]
COc1cc(NC(C)CCCNC(=O)/C=C/C(=O)Nc2cccc(F)c2)c2ncccc2c1 (centres unmarked) [Compound 4a, (2E)-N-(3-Fluorophenyl)-N′-{4-[(6-methoxyquinolin-8-yl)amino]pentyl}but-2-enediamide]	128 (≈ 284 µM)	5.7 to 31.2				
COc1cc(NC(C)CCCNC(=O)/C=C/C(=O)Nc2ccc(F)cc2)c2ncccc2c1 (centres unmarked) [Compound 4b, (2E)-N-(4-Fluorophenyl)-N′-{4-[(6-methoxyquinolin-8-yl)amino]pentyl}but-2-enediamide]	32 (≈ 71 µM)					
COc1cc(NC(C)CCCNC(=O)/C=C/C(=O)Nc2cccc(Cl)c2)c2ncccc2c1 (centres unmarked) [Compound 4c, (2E)-N-(3-Chlorophenyl)-N′-{4-[(6-methoxyquinolin-8-yl)amino]pentyl}but-2-enediamide]	128 (≈ 274 µM)		1.8–3.7	3.1 to 5.5	10	
COc1cc(NC(C)CCCNC(=O)/C=C/C(=O)Nc2ccc(Cl)cc2)c2ncccc2c1 (centres unmarked) [Compound 4d, (2E)-N-(4-Chlorophenyl)-N′-{4-[(6-methoxyquinolin-8-yl)amino]pentyl}but-2-enediamide]	128 (≈ 274 µM)					6.1 to 12.5
COc1cc(NC(C)CCCNC(=O)/C=C/C(=O)Nc2cccc(C(F)(F)F)c2)c2ncccc2c1 (centres unmarked) [Compound 4e, (2E)-N′-{4-[(6-Methoxyquinolin-8-yl)amino]pentyl}-N-[3-(trifluoromethyl)phenyl]but-2-enediamide]	128 (≈ 256 µM)		1.8–3.7	3.1 to 5.5	10	
COc1cc(NC(C)CCCNC(=O)/C=C/C(=O)Nc2ccc(C(F)(F)F)cc2)c2ncccc2c1 (centres unmarked) [Compound 4f, (2E)-N′-{4-[(6-Methoxyquinolin-8-yl)amino]pentyl}-N-[4-(trifluoromethyl)phenyl]but-2-enediamide]	64 (≈ 128 µM)					
